Results: paper PMC10589313 (Nature Communications, 2023)
Several values for one entry are separate records, joined by “and”; a condition that tells them apart may be missing. Equal values may be shown once.

Assays:
human H4R Y319A mutant = target: T1, human H4R Y319A mutant (Homo sapiens, UniProt Q9H3N8, Y319A); assay: TGFα shedding assay, H4R Y319A mutant; type: cell-based
T1 construct: a mutant H4R (human, full-length, and untagged); expressed in transfected cells; host or cells: HEK293A
Method: (§1) The mutants were prepared using the primers listed in Supplementary Table 2. […] The chimeric Gαq/i1 subunit comprises the Gαq backbone and Gαi1-derived six-amino acid C-terminus and couples with Gi-coupled H4R but induces a Gq-dependent TGFα shedding response. After culturing for 1 day and incubating at 37 °C in a 5% CO2 incubator, the transfected cells were harvested by trypsinization, neutralized with Dulbecco’s modified Eagle’s medium containing 10% fetal calf serum (FCS) and penicillin–streptomycin, washed once with Hank’s balanced salt solution (HBSS) containing 5 mM of HEPES (pH 7.4), and resuspended in 6 mL of the HEPES-containing HBSS. The cell suspension was seeded into a 96-well plate at a volume of […] per well (typically, 48 wells per transfected cells) and incubated for 30 min in the CO2 incubator. Test compounds (10×, diluted in 0.01% BSA and 5 mM of HEPES-containing HBSS, […] volume) were added to duplicate wells and incubated for 1 h. After centrifugation, the conditioned medium ([…]) was transferred to an empty 96-well plate. AP reaction solution [10 mM of p-nitrophenylphosphate (p-NPP), 120 mM of Tris–HCl (pH 9.5), 40 mM of NaCl, and 10 mM of MgCl2] was dispensed into the cell culture plates and plates containing conditioned media ([…]). Absorbance was measured at 405 nm before and after a 1-h incubation period at 25 °C using a microplate reader (iMark™ Microplate Absorbance Reader; BioRad). Ligand-induced AP-TGFα release was calculated as previously described. The vehicle-treated AP-TGFα release signal was set as a baseline unless otherwise specified. AP-TGFα release signals were fitted with a four-parameter sigmoidal concentration-response curve, from which EC50 and Emax values were obtained, using GraphPad Prism 9 software (GraphPad Prism). Negative values of logarithmically transformed EC50 values (pEC50) were used to calculate the mean and standard error of independent experiments.
(§2) All functional study data were analyzed using Prism 9 (GraphPad) and are presented as mean ± standard error of the mean (SEM) of three independent experiments. Statistical analyses were performed using Prism 9 (GraphPad) with one-way analysis of variance followed by Dunnett’s post-hoc test. Values with p < 0.05 are considered statistically significant.

human H4R W348Y mutant = target: T2, human H4R W348Y mutant (Homo sapiens, UniProt Q9H3N8, W348Y); assay: TGFα shedding assay, H4R W348Y mutant; type: cell-based
T2 construct: a mutant H4R (human, full-length, and untagged); expressed in transfected cells; host or cells: HEK293A
Method: as §1
(§3) All functional study data were analyzed using Prism 9 (GraphPad) and are presented as mean ± standard error of the mean (SEM) of three independent experiments. […]

human H4R W348A mutant = target: T3, human H4R W348A mutant (Homo sapiens, UniProt Q9H3N8, W348A); assay: TGFα shedding assay, H4R W348A mutant; type: cell-based
T3 construct: a mutant H4R (human, full-length, and untagged); expressed in transfected cells; host or cells: HEK293A
Method: as §1, §3

human H4R T99A mutant = target: T4, human H4R T99A mutant (Homo sapiens, UniProt Q9H3N8, T99A); assay: TGFα shedding assay, H4R T99A mutant; type: cell-based
T4 construct: a mutant H4R (human, full-length, and untagged); expressed in transfected cells; host or cells: HEK293A
Method: as §1, §2

H2R = settings: in words; cited from earlier work
human H4R F344I mutant = target: T5, human H4R F344I mutant (Homo sapiens, UniProt Q9H3N8, F344I); assay: TGFα shedding assay, H4R F344I mutant; type: cell-based
T5 construct: a mutant H4R (human, full-length, and untagged); expressed in transfected cells; host or cells: HEK293A
Method: as §1, §2

H3R = settings: read-out: binding affinity for H3R; cited from earlier work
human H4R N147A mutant = target: T6, human H4R N147A mutant (Homo sapiens, UniProt Q9H3N8, N147A); assay: TGFα shedding assay, H4R N147A mutant; type: cell-based; settings: for EC50: EC50 (nM)
T6 construct: a mutant H4R (human, full-length, and untagged); expressed in transfected cells; host or cells: HEK293A
Method: as §1, §2

human H4R Q347A mutant = target: T7, human H4R Q347A mutant (Homo sapiens, UniProt Q9H3N8, Q347A); assay: TGFα shedding assay, H4R Q347A mutant; type: cell-based
T7 construct: a mutant H4R (human, full-length, and untagged); expressed in transfected cells; host or cells: HEK293A
Method: as §1, §2

[1] = Imetit (M) -5 (log concentration), raw replicate values

T6 sequence (Q9H3N8 whole entry N147A): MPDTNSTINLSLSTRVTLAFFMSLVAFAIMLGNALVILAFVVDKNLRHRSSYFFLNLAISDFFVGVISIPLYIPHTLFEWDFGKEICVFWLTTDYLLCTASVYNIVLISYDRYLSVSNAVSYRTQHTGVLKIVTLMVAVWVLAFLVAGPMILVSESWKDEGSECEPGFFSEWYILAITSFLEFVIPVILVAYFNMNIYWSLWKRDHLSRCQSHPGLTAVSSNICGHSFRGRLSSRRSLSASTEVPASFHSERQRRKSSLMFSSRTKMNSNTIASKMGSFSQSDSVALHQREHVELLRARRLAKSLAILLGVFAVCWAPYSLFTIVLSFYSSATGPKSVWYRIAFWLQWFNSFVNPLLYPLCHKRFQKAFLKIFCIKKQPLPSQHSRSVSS
T5 sequence (Q9H3N8 whole entry F344I): as the sequence (Q9H3N8 whole entry N147A) above, with A147N, F344I counted along it
T7 sequence (Q9H3N8 whole entry Q347A): as the sequence (Q9H3N8 whole entry N147A) above, with A147N, Q347A counted along it
T2 sequence (Q9H3N8 whole entry W348Y): as the sequence (Q9H3N8 whole entry N147A) above, with A147N, W348Y counted along it
T3 sequence (Q9H3N8 whole entry W348A): as the sequence (Q9H3N8 whole entry N147A) above, with A147N, W348A counted along it
T4 sequence (Q9H3N8 whole entry T99A): as the sequence (Q9H3N8 whole entry N147A) above, with T99A, A147N counted along it
T1 sequence (Q9H3N8 whole entry Y319A): as the sequence (Q9H3N8 whole entry N147A) above, with A147N, Y319A counted along it

With N=C(N)SCCc1cnc[nH]1 [Imetit, imetit] the EC50 (human H4R Y319A mutant; EC50 (nM), Y319A mutant) was 159 nM, the “Shedding assay response, Y319A” value (human H4R Y319A mutant; [1]) was 15.1866 and 16.9873 and 18.1596 and 17.4201 and 15.3203 and 22.2497 and 14.1035 and 13.1515 and 10.7745 and the fold of change (human H4R Y319A mutant; Y319A mutant, EC50 relative to WT) was 5.3 fold. The EC50 (human H4R Y319A mutant; pEC50 mean ± SEM, Y319A mutant) was 141 nM, the Emax (human H4R Y319A mutant; read-out: Emax (%) mean ± SEM) was 15.8 ± 1.58% and the EC50 (human H4R W348Y mutant) was over 10000 nM. The “Shedding assay response, W348Y” value (human H4R W348Y mutant; [1]) was 5.993 and 7.639 and 4.713 and 7.402 and 9.589 and 3.141 and 9.854 and 11.9801 and 8.402, the “signaling activity at mutant, in words” value (human H4R W348Y mutant; W348Y (H1R mimic) mutant vs wild type) was “loss of imetit activity” and the EC50 (human H4R W348A mutant) was over 10000 nM. The “Shedding assay response, W348A” value (human H4R W348A mutant; [1]) was 2.59 and 2.574 and 7.329 and -2.233 and 0.1771 and -0.5753 and 0.3498 and -1.339 and 0.3261, the EC50 (human H4R T99A mutant) was 76 nM and the “Shedding assay response, T99A” value (human H4R T99A mutant; [1]) was 14.3742 and 14.7391 and 15.3687 and 10.9344 and 9.709 and 12.0103 and 13.6177 and 15.7879 and 16.7579. For the same compound, the fold of change (human H4R T99A mutant; T99A mutant, EC50 relative to WT) was 2.5 fold, the Emax (human H4R T99A mutant; read-out: Emax (%) mean ± SEM) was 13.7 ± 1.67% and the “binding to H2R” value (H2R) was “does not bind”. For the same compound, the EC50 (human H4R F344I mutant) was over 10000 nM, the “signaling activity at mutant, in words” value (human H4R F344I mutant; F344I (H1R mimic) mutant vs wild type) was “loss of imetit activity” and the “Shedding assay response, F344I” value (human H4R F344I mutant; [1]) was 1.112 and 4.483 and 7.185 and 5.21 and 4.635 and 3.564 and 4.726 and 4.072 and 2.0567. The Ki (H3R) was 0.3 nM, the EC50 (human H4R N147A mutant; N147A mutant) was 116 nM and the EC50 (human H4R N147A mutant; N147A, single experiments, source data Figure 4e-f) was 137 nM and 107 nM and 104 nM. For the same compound, the “Shedding assay response, N147A” value (human H4R N147A mutant; [1]) was 17.6838 and 20.1153 and 13.587 and 17.1019 and 17.2369 and 16.9193 and 20.3122 and 17.3343 and 19.4779, the fold of change (human H4R N147A mutant; N147A mutant, EC50 relative to WT) was 3.9 fold and the Emax (human H4R N147A mutant; read-out: Emax (%) mean ± SEM) was 17.2 ± 0.52%. The EC50 (human H4R Q347A mutant; EC50 (nM), Q347A mutant) was 12.7 nM, the “Shedding assay response, Q347A” value (human H4R Q347A mutant; [1]) was 17.2563 and 18.9409 and 18.4053 and 16.608 and 19.8188 and 22.6245 and 22.4962 and 23.3465 and 23.6643 and the fold of change (human H4R Q347A mutant; Q347A mutant, EC50 relative to WT) was 0.4 fold.
